Measurements reported in ChEMBL document CHEMBL1127096, “Synthesis and anticonvulsant activity of the (+)- and ()-enantiomers of 1,2,3,4-tetrahydro-5-(2-phosphonoethyl)-3-isoquinolinecarboxylic acid, a competitive NMDA antagonist” (Bioorg Med Chem Lett, 1993).
pIC50: −log10 of the molar value.

What was measured:
Mus musculus [1] = experiment: Tested in vivo for anticonvulsant activity against maximal electroshock in mouse, intravenously; type: functional
Mus musculus [2] = experiment: Tested in vivo for anticonvulsant activity against maximal electroshock in mouse, intravenously (MES tested at 1 h); type: functional
Mus musculus [3] = experiment: Tested in vivo for the ability to produce ataxia in mouse, intravenously. (ataxia tested at 30 min); type: functional
[4] = Tested for the therapeutic index, which was determined as the ratio of ED50 for ataxia and ED50 to prevent seizures; conditions: for selectivity ratio: read-out: TI
[5] = Partition coefficient (logP); type: physicochemical; conditions: octanol/water
Glutamate NMDA receptor = experiment: Tested for the inhibitory activity against NMDA receptor site as measured in a [3H]CPP binding assay of rat brain neuronal membranes
[6] = Tested for the NMDA antagonist activity, glutamate induced LDH release in cultured neuronal cells; type: functional, cell-based
[7] = Tested for the NMDA antagonist activity, glutamate induced calcium influx in cultured neuronal cells; type: functional, cell-based

Row | SMILES | ED50 (Mus musculus [1]) [mg/kg] | ED50 (Mus musculus [2]) [mg/kg] | ED50 (Mus musculus [3]) [mg/kg] | selectivity ratio [4] | logP [5] | pIC50 [6] | pIC50 [7] | further results
1 | C/C(=C\C(N)C(=O)O)CP(=O)(O)O (racemic) [CGP-37849] | 21 |  |  |  |  |  |  | 
2 | C/C(=C\C(N)C(=O)O)CP(=O)(O)O (single isomer, unassigned; (+)) [CGP-37849] | 7 |  |  |  |  |  |  | 
3 | C/C(=C\C(N)C(=O)O)CP(=O)(O)O (single isomer, unassigned; (-)) [CGP-37849] | >60 |  |  |  |  |  |  | 
4 | O=C(O)[C@H]1Cc2c(CCP(=O)(O)O)cccc2CN1 |  | 3.56 | 6.29 | 1.76 |  |  |  | 
5 | O=C(O)[C@H]1Cc2c(CCP(=O)(O)O)cccc2CN1 (racemic) |  | 9.2 | 15.84 |  | 1.4 | 5.06 | 5.29 | pIC50 (Glutamate NMDA receptor): 6.57; TI [4]: 1.72
6 | O=C(O)C1CN(CCCP(=O)(O)O)CCN1 (centres undefined) |  |  |  | 2.21 | -3.4 | 5.05 | 5.62 | ED50 (Mus musculus [2]; Mus musculus, iv, 1 h, read-out: ED50): 2.35 mg/kg; ED50 (Mus musculus [3]; Mus musculus, iv, 0.5 h, read-out: ED50): 5.21 mg/kg
